Read-outs that look alike come from different tables or passages of the source.
Legend:
[1] = Biodisposition of JV-DE1 and JV-MD2 delivered via NIODP (periorbital skin) in non-human primates; assay type: in vivo, cynomolgus monkeys; conditions: for Cmax / concentration at 24 h / concentration at 3 h / concentration at 6 h / concentration at 0.5 h: cynomolgus, cynomolgus monkey
Procedure: All experiments were performed at Medicilon. […] A pen brush was used to dose each formulation with three to four circular motions for even distribution. The doses of the test articles were selected based on their solubility/concentration with the maximum deliverable volume on the periorbital skin of the animals. The administered dose was calculated by the weight difference of the pen brush before and after administration. Animals were restrained from eye rubbing in restraint chairs for 2 h after dosing, with access to food and drink. A blood sample was collected from one of the study animals at pre-dosing. For every time point of 0.5, 3, 6, and 24 h post-dose, one animal was euthanized and the ocular tissues (upper eyelid, cornea, retina, and vitreous humor) of both eyes were collected. Plasma samples were collected before each euthanization.
For the convenience of tissue processing and sample extraction, only upper eyelids were collected to represent the entirety of the periorbital tissue. Ocular tissues were homogenized by adding a 9-fold volume of 50% methanol/H2O per gram of tissue. For the LC-MS/MS sample preparation, a 50 μL aliquot of plasma, aqueous humor, vitreous humor, or tissue homogenate was thoroughly mixed with a 250 μL extraction solution of CHCl3/EtOH (1:1); then, a 210 μL supernatant of the samples was transferred to a 96-well plate after centrifugation. The samples were evaporated in nitrogen gas (N2) until dried. Each sample was redissolved in 200 μL MeOH, of which 2 µL was injected for the LC-MS/MS analysis.
The LC system was the same as that described in Section 2. The MS analysis was performed using a Triple Quad 5500 with an ESI ion source, and the data acquisition and control system were Analyst 1.6.3 software from Applied Biosystems/MDS Sciex.
The LC/MS conditions for JV-DE1 are described in Supplementary Table S2. The LC conditions were as follows: ACQUITY UPLC ® BEH C18 1.7 μm, 2.1 mm × 50 mm; the mobile phase Column A, 0.1% formic acid in water; and Column B, 0.1% formic acid in acetonitrile. The flow rate was 0.6 ml/min, the column temperature was 50 °C, and the injection volume was 2 µL. The MS conditions were as follows: scan type, positive MRM; ion source, turbo spray; ionization model, ESI; nebulizer gas 1, 55 psi; gas 2, 55 psi; curtain gas, 40 psi; CAD, 10; ionspray voltage, 5500 V; and temperature, 550 °C.
The LC/MS conditions for JV-MD2 (DHA) are described in Supplementary Table S3. The LC conditions were as follows: ACQUITY UPLC® BEH C18 1.7 μm, 2.1 mm × 50 mm; the mobile phase Column A, […] NH4AC in H2O; and Column B, CAN. The flow rate was 0.5 mL/min, the column temperature was 40 °C, and the injection volume was 4 µL. The MS conditions were as follows: scan type, negative MRM; ion source, turbo spray; ionization model, ESI; nebulizer gas 1, 55 psi; gas 2, 55 psi; curtain gas, 40 psi; CAD, 9; ionspray voltage, 5500 V; and temperature, 550 °C.

human PAF receptor = target: human PAF receptor; design: method as in PMID 16331286; conditions: cited from earlier work
[2] = JV-DE1, monkey, NIODP OD, 159.3 μg/eye, 24 h
[3] = JV-DE1, monkey, NIODP OD, 160.6 μg/eye, 3 h
[4] = JV-DE1, monkey, NIODP OD, 162.2 μg/eye, 6 h
[5] = JV-DE1, monkey, NIODP OD, 179.1 μg/eye, 0.5 h

Drug in plasma ([1]; JV-DE1 0.53% w/w, monkey, NIODP periorbital skin OD, 159.3 μg/eye, 24 h, LLOQ 0.0001 µg/mL): BLQ | % Administered Dose, Cornea [1, 2]: 0.0326% | % Administered Dose, Eyelid/periorbital skin [1, 2]: 0.7501% | % Administered Dose, Retina [1, 2]: 0.0002% | % Administered Dose, Vitreous humor [1, 2]: 0.0018% | % Administered Dose, Cornea [1, 3]: 0.3430% | % Administered Dose, Eyelid/periorbital skin [1, 3]: 1.4956% | % Administered Dose, Retina [1, 3]: 0.0004% | % Administered Dose, Vitreous humor [1, 3]: 0.0029% | % Administered Dose, Cornea [1, 4]: 0.5900% | % Administered Dose, Eyelid/periorbital skin [1, 4]: 0.3477% | % Administered Dose, Retina [1, 4]: 0.0005% | % Administered Dose, Vitreous humor [1, 4]: 0.0031% | % Administered Dose, Cornea [1, 5]: 0.1921% | % Administered Dose, Eyelid/periorbital skin [1, 5]: 0.6370% | % Administered Dose, Retina [1, 5]: 0.0004% | % Administered Dose, Vitreous humor [1, 5]: 0.0047% | plasma concentrations ([1]; JV-DE1, monkey, NIODP about 165.3 µg/eye OD, all time points, LLOQ 0.0001 µg/mL): ≤ 0.3 ng/mL | maximum delivery efficiency in the retina ([1]; JV-DE1, monkey, via NIODP): 0.0005% | decrease of maximum retinal delivery efficiency, NIODP vs eye drop ([1]; JV-DE1, monkeys (NIODP) vs rabbits (eye drop), not head-to-head): about 10 fold | Cmax ([1]; cornea, topical or ocular, 165.3 ug, JV-DE1, monkey, NIODP about 165.3 µg/eye OD, read-out: Cmax in cornea): 9300 ng/g | concentration at 24 h ([1]; cornea, topical, JV-DE1, monkey, NIODP OD, 159.3 μg/eye, 24 h, read-out: Drug in OD Tissues, Cornea): 1620 ng/g | concentration at 3 h ([1]; cornea, topical, JV-DE1, monkey, NIODP OD, 160.6 μg/eye, 3 h, read-out: Drug in OD Tissues, Cornea): 16700 ng/g | concentration at 6 h ([1]; cornea, topical, JV-DE1, monkey, NIODP OD, 162.2 μg/eye, 6 h, read-out: Drug in OD Tissues, Cornea): 23900 ng/g | concentration at 0.5 h ([1]; cornea, topical, JV-DE1, monkey, NIODP OD, 179.1 μg/eye, 0.5 h, read-out: Drug in OD Tissues, Cornea): 9300 ng/g | concentration at 24 h ([1]; eyelid/periorbital skin (upper eyelid), topical, JV-DE1, monkey, NIODP OD, 159.3 μg/eye, 24 h, read-out: Drug in OD Tissues, Eyelid/periorbital skin): 11600 ng/g | concentration at 3 h ([1]; eyelid/periorbital skin (upper eyelid), topical, JV-DE1, monkey, NIODP OD, 160.6 μg/eye, 3 h, read-out: Drug in OD Tissues, Eyelid/periorbital skin): 32500 ng/g | concentration at 6 h ([1]; eyelid/periorbital skin (upper eyelid), topical, JV-DE1, monkey, NIODP OD, 162.2 μg/eye, 6 h, read-out: Drug in OD Tissues, Eyelid/periorbital skin): 7950 ng/g | concentration at 0.5 h ([1]; eyelid/periorbital skin (upper eyelid), topical, JV-DE1, monkey, NIODP OD, 179.1 μg/eye, 0.5 h, read-out: Drug in OD Tissues, Eyelid/periorbital skin): 26500 ng/g | Cmax ([1]; eyelid/periorbital skin, topical or ocular, 165.3 ug, JV-DE1, monkey, NIODP about 165.3 µg/eye OD, read-out: Cmax in eyelid/periorbital skin): 26500 ng/g | concentration at 3 h ([1]; plasma, topical, JV-DE1 0.53% w/w, monkey, NIODP periorbital skin OD, 160.6 μg/eye, 3 h, read-out: Drug in plasma): 0.2 ng/mL | concentration at 6 h ([1]; plasma, topical, JV-DE1 0.53% w/w, monkey, NIODP periorbital skin OD, 162.2 μg/eye, 6 h, read-out: Drug in plasma): 0.3 ng/mL | concentration at 0.5 h ([1]; plasma, topical, JV-DE1 0.53% w/w, monkey, NIODP periorbital skin OD, 179.1 μg/eye, 0.5 h, read-out: Drug in plasma): 0.1 ng/mL | Cmax ([1]; retina, topical or ocular, 165.3 ug, JV-DE1, monkey, NIODP about 165.3 µg/eye OD, read-out: Cmax in retina): 45.5 ng/g | Cmax ([1]; retina, topical, 165.3 µg per eye, JV-DE1, monkey, NIODP, read-out: retinal Cmax): 147 nM | concentration at 24 h ([1]; retina, topical, JV-DE1, monkey, NIODP OD, 159.3 μg/eye, 24 h, read-out: Drug in OD Tissues, Retina): 5.5 ng/g | concentration at 3 h ([1]; retina, topical, JV-DE1, monkey, NIODP OD, 160.6 μg/eye, 3 h, read-out: Drug in OD Tissues, Retina): 27.9 ng/g | concentration at 6 h ([1]; retina, topical, JV-DE1, monkey, NIODP OD, 162.2 μg/eye, 6 h, read-out: Drug in OD Tissues, Retina): 45.5 ng/g | concentration at 0.5 h ([1]; retina, topical, JV-DE1, monkey, NIODP OD, 179.1 μg/eye, 0.5 h, read-out: Drug in OD Tissues, Retina): 39.6 ng/g | Cmax ([1]; vitreous humor, topical or ocular, 165.3 ug, JV-DE1, monkey, NIODP about 165.3 µg/eye OD, read-out: Cmax in vitreous humor): 19 ng/mL | concentration at 24 h ([1]; vitreous humor, topical, JV-DE1, monkey, NIODP OD, 159.3 μg/eye, 24 h, read-out: Drug in OD Tissues, Vitreous humor): 19 ng/mL | concentration at 3 h ([1]; vitreous humor, topical, JV-DE1, monkey, NIODP OD, 160.6 μg/eye, 3 h, read-out: Drug in OD Tissues, Vitreous humor): 7.9 ng/mL | concentration at 6 h ([1]; vitreous humor, topical, JV-DE1, monkey, NIODP OD, 162.2 μg/eye, 6 h, read-out: Drug in OD Tissues, Vitreous humor): 3.9 ng/mL | concentration at 0.5 h ([1]; vitreous humor, topical, JV-DE1, monkey, NIODP OD, 179.1 μg/eye, 0.5 h, read-out: Drug in OD Tissues, Vitreous humor): 15.2 ng/mL
Structure (SMILES): CC(C)Oc1ccc(Cc2ccc(NC3=NCCN3)cc2)cc1 [JV-DE1, 4,5-dihydro-N-[4-[[4-(1-methylethoxy)phenyl]methyl]phenyl]-1H-imadazol-2-amine]
pKi (human PAF receptor): 7.9
